{"source": "patent US7662832B2", "about": "“Pyrrolo[2,3-c]pyridine derivatives and processes for the preparation thereof” (priority 2004, dated 2010)", "note": "Structures can show the parent of a compound that is named as a salt."}
{"target": "Proton Pump (H^+/K^+-ATPase) (Sus scrofa, UniProt P19156)", "sequence (P19156 2-1034 limits assumed)": "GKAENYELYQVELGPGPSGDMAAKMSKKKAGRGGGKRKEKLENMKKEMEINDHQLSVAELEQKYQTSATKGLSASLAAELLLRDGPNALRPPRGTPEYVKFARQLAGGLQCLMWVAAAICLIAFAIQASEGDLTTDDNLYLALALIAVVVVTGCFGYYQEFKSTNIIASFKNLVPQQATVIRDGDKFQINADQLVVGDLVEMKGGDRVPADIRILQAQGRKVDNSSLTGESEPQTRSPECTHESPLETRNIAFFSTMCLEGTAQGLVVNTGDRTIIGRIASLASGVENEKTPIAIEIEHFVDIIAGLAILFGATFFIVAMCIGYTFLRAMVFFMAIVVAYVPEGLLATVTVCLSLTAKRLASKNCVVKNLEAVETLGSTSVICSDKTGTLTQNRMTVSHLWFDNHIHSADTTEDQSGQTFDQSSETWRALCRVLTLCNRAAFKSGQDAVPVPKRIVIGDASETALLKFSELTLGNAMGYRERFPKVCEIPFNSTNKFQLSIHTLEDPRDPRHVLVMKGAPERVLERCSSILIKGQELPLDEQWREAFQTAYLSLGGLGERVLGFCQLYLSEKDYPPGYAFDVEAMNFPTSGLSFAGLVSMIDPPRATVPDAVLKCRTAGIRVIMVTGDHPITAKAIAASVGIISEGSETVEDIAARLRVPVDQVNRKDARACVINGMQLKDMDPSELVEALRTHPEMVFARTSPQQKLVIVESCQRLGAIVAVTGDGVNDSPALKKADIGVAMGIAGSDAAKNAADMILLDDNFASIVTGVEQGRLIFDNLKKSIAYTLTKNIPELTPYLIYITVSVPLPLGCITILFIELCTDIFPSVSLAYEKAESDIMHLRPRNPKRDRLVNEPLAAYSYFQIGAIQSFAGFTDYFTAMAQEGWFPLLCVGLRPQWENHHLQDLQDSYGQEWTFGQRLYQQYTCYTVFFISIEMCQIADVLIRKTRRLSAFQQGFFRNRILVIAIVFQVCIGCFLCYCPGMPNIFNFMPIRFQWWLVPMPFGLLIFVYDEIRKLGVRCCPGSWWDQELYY", "sequence (P18434 whole entry partner)": "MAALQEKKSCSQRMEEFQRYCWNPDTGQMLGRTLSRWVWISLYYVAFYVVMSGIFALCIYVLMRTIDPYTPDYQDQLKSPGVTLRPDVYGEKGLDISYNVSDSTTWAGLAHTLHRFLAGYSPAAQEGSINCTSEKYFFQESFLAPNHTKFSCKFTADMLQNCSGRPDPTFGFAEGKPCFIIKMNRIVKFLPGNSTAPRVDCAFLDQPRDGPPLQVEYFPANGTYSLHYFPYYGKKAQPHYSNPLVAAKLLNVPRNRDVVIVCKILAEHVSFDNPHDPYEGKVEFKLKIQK", "assay": "Inhibitory effects on proton pump (H^+/K^+-ATPase) activity", "assay_type": "biochemical", "conditions": "hog gastric vesicles; K^+ stimulated H^+/K^+-ATPase activity; 30 minutes at 37° C.", "units": {"IC50": "µM"}}
{"smiles": "COc1cccc(Cn2c(C)c(C)c3ccnc(-c4ccc(SC)cc4)c32)c1", "note": "[Example 266, 1-(3-methoxybenzyl)-2,3-dimethyl-7-(4-methylsulfanylphenyl)-1H-pyrrolo[2,3-c]pyridine hydrochloride]", "IC50": 0.14}
{"smiles": "CSc1ccc(-c2nccc3c(C)c(C)n(Cc4ccc(C)cc4)c23)cc1", "note": "[Example 267, 2,3-dimethyl-1-(4-methylbenzyl)-7-(4-methylsulfanylphenyl)-1H-pyrrolo[2,3-c]pyridine hydrochloride]", "IC50": 0.11}
{"smiles": "CSc1ccc(-c2nccc3c(C)c(C)n(Cc4ccccc4)c23)cc1", "note": "[Example 268, 1-benzyl-2,3-dimethyl-7-(4-methylsulfanylphenyl)-1H-pyrrolo[2,3-c]pyridine hydrochloride]", "IC50": 0.13}
{"smiles": "CSc1ccc(-c2nccc3c(C)c(C)n(CC4CC4)c23)cc1", "note": "[Example 270, 1-cyclopropylmethyl-2,3-dimethyl-7-(4-methylsulfanylphenyl)-1H-pyrrolo[2,3-c]pyridine hydrochloride]", "IC50": 0.45}
{"smiles": "CSc1ccc(-c2nccc3c(C)c(C)n(Cc4cccc(F)c4)c23)cc1", "note": "[Example 272, 2,3-dimethyl-1-(3-fluorobenzyl)-7-(4-methylsulfanylphenyl)-1H-pyrrolo[2,3-c]pyridine hydrochloride]", "IC50": 0.22}
{"smiles": "CSc1ccc(-c2nccc3c(C)c(C)n(Cc4ccc(F)cc4)c23)cc1", "note": "[Example 274, 2,3-dimethyl-1-(4-fluorobenzyl)-7-(4-methylsulfanylphenyl)-1H-pyrrolo[2,3-c]pyridine hydrochloride]", "IC50": 0.42}
{"smiles": "CSc1ccc(-c2nccc3c(C)c(C)n(Cc4ccccc4F)c23)cc1", "note": "[Example 275, 2,3-dimethyl-1-(2-fluorobenzyl)-7-(4-methylsulfanylphenyl)-1H-pyrrolo[2,3-c]pyridine hydrochloride]", "IC50": 0.36}
{"smiles": "C=CCn1c(C)c(C)c2ccnc(-c3ccc(C)cc3)c21", "note": "[Example 277, 1-allyl-2,3-dimethyl-7-(p-tolyl)-1H-pyrrolo[2,3-c]pyridine hydrochloride]", "IC50": 0.129}
{"smiles": "COc1cccc(Cn2c(C)c(C)c3ccnc(-c4ccc(C)cc4)c32)c1", "note": "[Example 278, 1-(3-methoxybenzyl)-2,3-dimethyl-7-(p-tolyl)-1H-pyrrolo[2,3-c]pyridine hydrochloride]", "IC50": 0.39}
{"smiles": "Cc1ccc(Cn2c(C)c(C)c3ccnc(-c4ccc(C)cc4)c32)cc1", "note": "[Example 279, 2,3-dimethyl-1-(4-methylbenzyl)-7-(p-tolyl)-1H-pyrrolo[2,3-c]pyridine hydrochloride]", "IC50": 0.231}
{"smiles": "C#CCn1c(C)c(C)c2ccnc(-c3ccc(C)cc3)c21", "note": "[Example 280, 2,3-dimethyl-1-(prop-2-ynyl)-7-(p-tolyl)-1H-pyrrolo[2,3-c]pyridine hydrochloride]", "IC50": 0.345}
{"smiles": "Cc1ccc(-c2nccc3c(C)c(C)n(Cc4ccccc4)c23)cc1", "note": "[Example 281, 1-benzyl-2,3-dimethyl-7-(p-tolyl)-1H-pyrrolo[2,3-c]pyridine hydrochloride]", "IC50": 0.292}
{"smiles": "Cc1ccc(-c2nccc3c(C)c(C)n(Cc4ccc(Cl)cc4)c23)cc1", "note": "[Example 283, 1-(4-chlorobenzyl)-2,3-dimethyl-7-(p-tolyl)-1H-pyrrolo[2,3-c]pyridine hydrochloride]", "IC50": 1.74}
{"smiles": "Cc1ccc(-c2nccc3c(C)c(C)n(Cc4cccc(F)c4)c23)cc1", "note": "[Example 284, 2,3-dimethyl-1-(3-fluorobenzyl)-7-(p-tolyl)-1H-pyrrolo[2,3-c]pyridine hydrochloride]", "IC50": 0.267}
{"smiles": "Cc1ccc(-c2nccc3c(C)c(C)n(CC4CCC4)c23)cc1", "note": "[Example 289, 1-cyclobutylmethyl-2,3-dimethyl-7-(p-tolyl)-1H-pyrrolo[2,3-c]pyridine hydrochloride]", "IC50": 1.34}
{"smiles": "Cc1ccc(-c2nccc3c(C)c(C)n(Cc4ccc(Cl)c(Cl)c4)c23)cc1", "note": "[Example 296, 1-(3,4-dichlorobenzyl)-2,3-dimethyl-7-(p-tolyl)-1H-pyrrolo[2,3-c]pyridine hydrochloride]", "IC50": 5.08}
{"smiles": "Cc1[nH]c2c(-c3ccc(Cl)cc3)nccc2c1C", "note": "[Example 299, 7-(4-chlorophenyl)-2,3-dimethyl-1H-pyrrolo[2,3-c]pyridine hydrochloride]", "IC50": 0.35}
{"smiles": "C=CCn1c(C)c(C)c2ccnc(-c3ccc(Cl)cc3)c21", "note": "[Example 300, 1-allyl-7-(4-chlorophenyl)-2,3-dimethyl-1H-pyrrolo[2,3-c]pyridine hydrochloride]", "IC50": 0.173}
{"smiles": "Cc1c(C)n(Cc2ccccc2)c2c(-c3ccc(Cl)cc3)nccc12", "note": "[Example 301, 1-benzyl-7-(4-chlorophenyl)-2,3-dimethyl-1H-pyrrolo[2,3-c]pyridine hydrochloride]", "IC50": 0.384}
{"smiles": "Cc1c(C)n(CC(C)C)c2c(-c3ccc(Cl)cc3)nccc12", "note": "[Example 304, 7-(4-chlorophenyl)-1-isobutyl-2,3-dimethyl-1H-pyrrolo[2,3-c]pyridine hydrochloride]", "IC50": 0.915}
{"smiles": "Cc1[nH]c2c(-c3ccc(F)cc3)nccc2c1C", "note": "[Example 325, 7-(4-fluorophenyl)-2,3-dimethyl-1H-pyrrolo[2,3-c]pyridine hydrochloride]", "IC50": 1.98}
{"smiles": "C=CCn1c(C)c(C)c2ccnc(-c3ccc(F)cc3)c21", "note": "[Example 326, 1-allyl-7-(4-fluorophenyl)-2,3-dimethyl-1H-pyrrolo[2,3-c]pyridine hydrochloride]", "IC50": 0.306}
{"smiles": "COc1ccc(-c2nccc3c(C)c(C)n(Cc4ccccc4)c23)cc1", "note": "[Example 350, 1-benzyl-7-(4-methoxyphenyl)-2,3-dimethyl-1H-pyrrolo[2,3-c]pyridine hydrochloride]", "IC50": 0.21}
{"smiles": "COc1ccc(-c2nccc3c(C)c(C)n(Cc4ccccc4F)c23)cc1", "note": "[Example 353, 1-(2-fluorobenzyl)-7-(4-methoxyphenyl)-2,3-dimethyl-1H-pyrrolo[2,3-c]pyridine hydrochloride]", "IC50": 0.49}
{"smiles": "C#CCn1c(C)c(C)c2ccnc(-c3ccc(OC)cc3)c21", "note": "[Example 354, 7-(4-methoxyphenyl)-2,3-dimethyl-1-(prop-2-ynyl)-1H-pyrrolo[2,3-c]pyridine hydrochloride]", "IC50": 0.15}
{"smiles": "C=CCn1c(C)c(C)c2ccnc(-c3ccc(OC)cc3)c21", "note": "[Example 360, 1-allyl-7-(4-methoxyphenyl)-2,3-dimethyl-1H-pyrrolo[2,3-c]pyridine hydrochloride]", "IC50": 0.278}
{"smiles": "Cc1c(C)n(CC2CC2)c2c(-c3ccc4ccccc4c3)nccc12", "note": "[Example 403, 1-cyclopropylmethyl-2,3-dimethyl-7-(naphthalen-2-yl)-1H-pyrrolo[2,3-c]pyridine hydrochloride]", "IC50": 0.07}
{"smiles": "CCn1c(C)c(C)c2ccnc(-c3ccc4ccccc4c3)c21", "note": "[Example 404, 1-ethyl-2,3-dimethyl-7-(naphthalen-2-yl)-1H-pyrrolo[2,3-c]pyridine hydrochloride]", "IC50": 0.095}
{"smiles": "Cc1c(C)n(Cc2cccc(F)c2)c2c(-c3ccc4ccccc4c3)nccc12", "note": "[Example 405, 1-(3-fluorobenzyl)-2,3-dimethyl-7-(naphthalen-2-yl)-1H-pyrrolo[2,3-c]pyridine hydrochloride]", "IC50": 0.073}
{"smiles": "Cc1c(C)n(Cc2ccc(C(C)(C)C)cc2)c2c(-c3ccc4ccccc4c3)nccc12", "note": "[Example 406, 1-(4-tert-butylbenzyl)-2,3-dimethyl-7-(naphthalen-2-yl)-1H-pyrrolo[2,3-c]pyridine hydrochloride]", "IC50": 0.189}
